The test addresses T1, modified thermophilic polymerase (Therminator 3, from New England BioLabs) (Thermococcus sp., UniProt Q56366, D141A/E143A/L408S/P410V/Y409A).
T1 construct: purchased New England BioLabs
Nature of the test: Incorporation of 3′-terminated nucleotides by a modified thermophilic polymerase. Type of test: biochemical, Thermococcus sp. 9 degrees N-7. To be noted: pH 8.5, nucleotides at 200 nM, 4 mM Mg, 55° C.; polymerase pre-bound to primed DNA template. The text has this: Another important property of a nucleotide with a reversible terminator (e.g., 3′ cleavable moiety as described herein) is the ability to be rapidly incorporated by a DNA polymerase. Naturally occurring DNA polymerases are typically not capable of incorporating nucleotides modified with reversible terminator (e.g., 3′ cleavable moiety as described herein) at the 3′ position on the ribose of the nucleotide. As known in the art, a number of thermophilic polymerases have been engineered to enable the incorporation of nucleotides modified with 3′ terminators. […] The reaction was carried out in a buffered solution at pH 8.5, with nucleotides at 200 nM concentration, 4 mM Mg, at a temperature of 55° C. The polymerase was pre-bound to the primed DNA template. All three terminated nucleotides are efficiently incorporated by the modified DNA polymerase. The polymerase can be further modified for desired properties such as incorporation rate and accuracy.

T1 sequence (Q56366 whole entry D141A/E143A/L408S/Y409A/P410V): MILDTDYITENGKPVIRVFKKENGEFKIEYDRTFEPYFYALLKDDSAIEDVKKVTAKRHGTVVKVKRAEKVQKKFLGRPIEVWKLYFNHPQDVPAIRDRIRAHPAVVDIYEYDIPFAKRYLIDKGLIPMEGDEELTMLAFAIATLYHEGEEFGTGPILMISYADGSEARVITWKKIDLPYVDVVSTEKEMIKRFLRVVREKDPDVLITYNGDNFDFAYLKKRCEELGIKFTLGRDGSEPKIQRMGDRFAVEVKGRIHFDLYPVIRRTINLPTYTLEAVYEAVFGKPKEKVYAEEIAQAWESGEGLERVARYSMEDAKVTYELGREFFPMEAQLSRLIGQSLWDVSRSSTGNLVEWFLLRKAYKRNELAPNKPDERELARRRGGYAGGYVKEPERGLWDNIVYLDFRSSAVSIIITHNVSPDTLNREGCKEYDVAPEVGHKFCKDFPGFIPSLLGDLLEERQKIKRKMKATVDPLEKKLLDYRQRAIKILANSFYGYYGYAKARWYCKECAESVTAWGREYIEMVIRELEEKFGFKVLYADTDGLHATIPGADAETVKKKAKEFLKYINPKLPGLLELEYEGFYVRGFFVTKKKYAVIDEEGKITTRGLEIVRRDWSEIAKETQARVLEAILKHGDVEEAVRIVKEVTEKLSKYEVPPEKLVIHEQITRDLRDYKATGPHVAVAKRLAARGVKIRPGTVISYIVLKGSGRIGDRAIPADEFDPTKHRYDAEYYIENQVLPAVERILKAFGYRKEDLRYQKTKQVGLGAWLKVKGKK

Turning to `CSSCOC1CC(n2cc(C)c(=O)[nH]c2=O)OC1COP(=O)(O)OP(=O)(O)OP(=O)(O)O` (stereo not shown) [RT #1, 3′O—CH2—S—S—CH3], the Incorporation half-time came to 14 ± 3 s.

Source of the values: patent US10738072B1, “Nucleotide analogues” (Singular Genomics Systems, Inc., priority 2018, dated 2020).
